# Assay results: patent US20260001914A1, “MACROCYCLIC PEPTIDES TARGETING KRAS” (Merck Sharp & Dohme LLC, priority 2022, published 2026)
# pEC50: −log10 of the molar value. *1 amine or outer side, *2 acyl side, *3 side chain or, on linkers, in order; H or OH if unused. Where a SMILES comes first, the peptide text is derived from it. Bridges are numbered along the chain shown (N, C = ends). [ ]: non-standard residue; d: D form. X34 = O=C(C[C@@H](Cc1ccccc1)C(=O)[*:2])C12CC(CN[*:1])(C1)C2; Ala(1-bicyclo(1.1.1)pentyl) = N[C@@H](CC12CC(C1)C2)C(=O)O; Phe(4-guanidino) = N=C(N)Nc1ccc(C[C@H](N)C(=O)O)cc1; X44 = C[C@@H](c1ccccc1)[C@@H](C(=O)[*:2])N(C)[*:1]; Ala(pyrimidin-5-yl) = N[C@@H](Cc1cncnc1)C(=O)O; X29 = CC(=O)N(C)CCC[C@@H](C(=O)[*:2])N(C)[*:1]; NMe3Pal(6-Me) = CN[C@@H](Cc1ccc(C)nc1)C(=O)O; X33 = O=C([C@H](Cc1ccnc(F)c1F)N[*:1])[*:2]; X7 = C[C@H](N[*:1])C12CC(C(=O)[*:2])(C1)C2; X25 = O=C([C@H](Cc1ccc(F)nc1)N[*:1])[*:2]; X27 = Cc1ccc(C[C@H](N[*:1])C(=O)[*:2])cn1; X3 = CN([C@@H](Cc1cncnc1)C(=O)[*:2])[*:1]; X5 = O=C([C@H](Cc1c(F)ccnc1F)N[*:1])[*:2]; Leu(4,5-dehydro) = C=C(C)C[C@H](N)C(=O)O; X11 = CC(C)(F)CC[C@H](N[*:1])C(=O)[*:2]; Nle(5,5-F2) = CC(F)(F)CC[C@H](N)C(=O)O; Phe(3-Me) = Cc1cccc(C[C@H](N)C(=O)O)c1; Phe(2-F) = N[C@@H](Cc1ccccc1F)C(=O)O; NMe3Pal = CN[C@@H](Cc1cccnc1)C(=O)O; X1 = O=C(C12CC(CN[*:1])(C1)C2)[*:2]; X12 = CC(=O)NCCCN(CC(=O)[*:2])[*:1]; NMeOrn(Me) = CNCCC[C@H](NC)C(=O)O; Ala(cPr) = N[C@@H](CC1CC1)C(=O)O; NMeF = CN[C@@H](Cc1ccccc1)C(=O)O; PhLac = O=C(O)[C@@H](O)Cc1ccccc1; 3Pal = N[C@@H](Cc1cccnc1)C(=O)O; Ahp(2) = CCCCC[C@H](N)C(=O)O; Ala(CN) = N#CC[C@H](N)C(=O)O; Cba = N[C@@H](CC1CCC1)C(=O)O; hLeu = CC(C)CC[C@H](N)C(=O)O; NMeS = CN[C@@H](CO)C(=O)O; αMeC = C[C@](N)(CS)C(=O)O; NMeA = CN[C@@H](C)C(=O)O; Nle = CCCC[C@H](N)C(=O)O; Nva = CCC[C@H](N)C(=O)O
# Molecular target: phosphorylation levels of ERK1/2 in AsPC-1 (homozygous KRAS-G12D) cells (Homo sapiens, UniProt P01116, G12D)
# Test: Cellular phospho-ERK assay in AsPC-1 cells (Alpha Screen), assay medium without fetal bovine serum;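 note: signal taken as phospho-ERK over total ERK per well, both detected in one multiplex bead assay, EC50 from four-parameter logistic fit of dose-response curves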
# Format: cell-based
# Conditions: phospho-ERK AlphaScreen, 18 h
# Protocol: Assay plate was incubated at 37° C. 5% CO2 for the indicated length of time. […] Phosphorylated ERK and total ERK levels were detected by Alpha SureFire Ultra Multiplex pERK kit (PerkinElmer MPSU-PTERK) using 5 μL, acceptor bead mix and 5 μL donor bead mix, both prepared following the manufacturer's protocol. Plates were sealed using aluminum sealing tape (Costar 07-200-683) during incubation at ambient temperature with constant shaking at 300 rpm for 1 h (both acceptor and donor). Assay plates were read on a Envision Xcite Multilabel Reader (PerkinElmer 1040900) at ambient temperature, with emission at 535 nm (Total ERK) and emission at 615 nm (Phospho ERK). Ratio of pERK vs total ERK in each well was used as the final readout. Dose response curves and EC50 were analyzed using a 4-parameter logistic equation in GraphPad Prism software.
# phosphorylation levels of ERK1/2 in AsPC-1 (homozygous KRAS-G12D) cells, sequence (P01116 1-186 G12D): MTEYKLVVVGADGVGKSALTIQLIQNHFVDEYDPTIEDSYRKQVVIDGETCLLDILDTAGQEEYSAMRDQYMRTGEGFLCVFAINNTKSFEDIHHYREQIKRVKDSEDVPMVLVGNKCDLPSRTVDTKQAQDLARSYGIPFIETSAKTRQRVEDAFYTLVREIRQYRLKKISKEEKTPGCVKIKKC
row,Compound,pEC50
1,"C[C@@H](c1ccccc1)[C@H]1C(=O)NCC23CC(C2)(C3)C(=O)O[C@@H](Cc2ccccc2)C(=O)N(C)[C@@H](C)C(=O)N[C@@H](Cc2cncnc2)C(=O)N[C@@H](CC2CC2)C(=O)N[C@@H](Cc2ccccc2F)C(=O)N[C@@H](CCC(C)(C)F)C(=O)N1C [compound 340, cyclo(FLac-NMeA-PyrimAla-cPrA-Phe2F-hL3F-NMeSbMeF-amBCP)] (cyclo([Ala(cPr)][Phe(2-F)][X11][X44][X1][PhLac][NMeA][Ala(pyrimidin-5-yl)]))",5.37
2,"CCCC[C@@H]1NC(=O)[C@H](Cc2cccnc2)NC(=O)[C@H](C)N(C)C(=O)[C@H](Cc2ccccc2)OC(=O)C23CC(CNC(=O)[C@H](Cc4cccnc4)N(C)C(=O)[C@H](CCC)NC(=O)[C@H](Cc4ccccc4F)NC1=O)(C2)C3 [compound 116, cyclo(FLac-NMeA-3Pal-Nle-Phe2F-Nva-NMe3Pal-amBCP)] (cyclo([3Pal][Nle][Phe(2-F)][Nva][NMe3Pal][X1][PhLac][NMeA]))",< 4.29
3,"C[C@H]1C(=O)N[C@@H](Cc2cncnc2)C(=O)N[C@@H](CC2CC2)C(=O)N[C@@H](Cc2ccccc2F)C(=O)N[C@@H](CCC(C)(F)F)C(=O)N(C)[C@@H](Cc2ccccc2)C(=O)NCC23CC(C2)(C3)C(=O)C[C@@H](Cc2ccccc2)C(=O)N1C [compound 290, cyclo(CPhe-NMeA~PyrimAla-cPrA-Phe2F-Nle3F2-NMeF-amBCP)] (cyclo([Ala(cPr)][Phe(2-F)][Nle(5,5-F2)][NMeF][X34][NMeA][Ala(pyrimidin-5-yl)]))",5.97
4,"CCCC[C@@H]1NC(=O)[C@H](Cc2cccnc2)NC(=O)[C@H](CO)N(C)C(=O)[C@H](Cc2ccccc2)OC(=O)C23CC(CNC(=O)[C@H](Cc4cccnc4)N(C)C(=O)[C@H](CCCC)NC(=O)[C@H](Cc4ccccc4F)NC1=O)(C2)C3 [compound 118, cyclo(FLac-NMeS-3Pal-Nle-Phe2F-Nle-NMe3Pal-amBCP)] (cyclo([3Pal][Nle][Phe(2-F)][Nle][NMe3Pal][X1][PhLac][NMeS]))",< 4.29
5,"CC(C)CC[C@@H]1NC(=O)[C@H](Cc2c(F)ccnc2F)NC(=O)[C@H](CC2CC2)NC(=O)[C@H](Cc2cncnc2)NC(=O)[C@H](C)N(C)C(=O)[C@H](Cc2ccccc2)OC(=O)C23CC(CNC(=O)[C@H](Cc4ccccc4)N(C)C1=O)(C2)C3 [compound 295, cyclo(FLac-NMeA-PyrimAla-cPrA-3Pal26F2-hL-NMeF-amBCP)] (cyclo([Ala(cPr)][X5][hLeu][NMeF][X1][PhLac][NMeA][Ala(pyrimidin-5-yl)]))",4.53
6,"C[C@H]1C(=O)N[C@@H](Cc2cncnc2)C(=O)N[C@@H](CCC(C)(F)F)C(=O)N[C@@H](Cc2ccccc2F)C(=O)N[C@@H](CCC(C)(F)F)C(=O)N(C)[C@@H](Cc2ccccc2)C(=O)NCC23CC(C2)(C3)C(=O)O[C@@H](Cc2ccccc2)C(=O)N1C [compound 288, cyclo(FLac-NMeA-PyrimAla-Nle3F2-Phe2F-Nle3F2-NMeF-amBCP)] (cyclo([NMeA][Ala(pyrimidin-5-yl)][Nle(5,5-F2)][Phe(2-F)][Nle(5,5-F2)][NMeF][X1][PhLac]))",5.18
7,"CC(C)CC[C@@H]1NC(=O)[C@H](Cc2ccnc(F)c2F)NC(=O)[C@H](CC2CC2)NC(=O)[C@H](Cc2cncnc2)NC(=O)[C@H](C)N(C)C(=O)[C@H](Cc2ccccc2)OC(=O)C23CC(CNC(=O)[C@H](Cc4ccccc4)N(C)C1=O)(C2)C3 [compound 293, cyclo(FLac-NMeA-PyrimAla-cPrA-4Pal23F2-hL-NMeF-amBCP)] (cyclo([Ala(cPr)][X33][hLeu][NMeF][X1][PhLac][NMeA][Ala(pyrimidin-5-yl)]))",4.34
8,"CCCCC[C@@H]1NC(=O)[C@H](Cc2ccc(OC)cc2)NC(=O)[C@H](CC2CCC2)NC(=O)[C@H](Cc2ccc(NC(=N)N)cc2)NC(=O)CN(CCCNC(C)=O)C(=O)[C@H](Cc2ccccc2)NC(=O)CSC[C@@](C)(C(N)=O)NC(=O)[C@H](Cc2ccccc2)N(C)C1=O [compound 387, cyclo(F-AcApG-Phe4Gn-cBuA-TyrOMe-Ahp-NMcF-aMeCl-ClAc)] ({CH2CO}-F[X12][Phe(4-guanidino)][Cba]Y(Me)[Ahp(2)][NMeF][αMeC]-NH2; thioether N-8)",< 4.29
9,"C=C(C)C[C@@H]1NC(=O)[C@H](CC2CC2)NC(=O)[C@H](Cc2cncnc2)NC(=O)[C@H](C)N(C)C(=O)[C@H](Cc2ccccc2)OC(=O)C23CC(CNC(=O)[C@H](Cc4ccccc4)N(C)C(=O)[C@H](CCC(C)C)NC1=O)(C2)C3 [compound 287, cyclo(FLac-NMeA-PyrimAla-cPrA-deHLeu-hL-NMeF-amBCP)] (cyclo([Ala(cPr)][Leu(4,5-dehydro)][hLeu][NMeF][X1][PhLac][NMeA][Ala(pyrimidin-5-yl)]))",4.77
10,"CCCC[C@@H]1NC(=O)[C@H](Cc2cccnc2)NC(=O)[C@H](C)N(C)C(=O)[C@H](Cc2ccc(F)nc2)NC(=O)C23CC(CNC(=O)[C@H](Cc4cccnc4)N(C)C(=O)[C@H](CCCC)NC(=O)[C@H](Cc4ccccc4F)NC1=O)(C2)C3 [compound 165, cyclo(4F3Pal-NMeA-3Pal-Nle-Phe2F-Nle-NMe3Pal-amBCP)] (cyclo([3Pal][Nle][Phe(2-F)][Nle][NMe3Pal][X1][X25][NMeA]))",< 4.29
11,"CCCCC[C@@H]1NC(=O)[C@H](Cc2ccc(OC)cc2)NC(=O)[C@H](CC2CCC2)NC(=O)[C@H](Cc2cccnc2)NC(=O)[C@H](CCCNC(=N)N)NC(=O)[C@H](Cc2ccccc2)NC(=O)CSC[C@@](C)(C(N)=O)NC(=O)[C@H](Cc2cncnc2)N(C)C1=O [compound 376, cyclo(F-R-3Pal-cBuA-TyrOMe-Ahp-NMeAlaPyrim-aMeCl-ClAc)] ({CH2CO}-FR[3Pal][Cba]Y(Me)[Ahp(2)][X3][αMeC]-NH2; thioether N-8)",< 4.29
12,"CCCC[C@@H]1NC(=O)[C@H](Cc2cccnc2)NC(=O)[C@H](CCCN(C)C(C)=O)N(C)C(=O)[C@H](Cc2ccccc2)OC(=O)C23CC(CNC(=O)[C@H](Cc4cccnc4)N(C)C(=O)[C@H](CCCC)NC(=O)[C@H](Cc4ccccc4F)NC1=O)(C2)C3 [compound 405, cyclo(FLac-NMeOrnAc-3Pal-Nle-Phe2F-Nle-NMe3Pal-amBCP)] (cyclo([3Pal][Nle][Phe(2-F)][Nle][NMe3Pal][X1][PhLac][X29]))",< 4.29
13,"CC(C)CC[C@@H]1NC(=O)[C@H](Cc2ccccc2F)NC(=O)[C@H](CC23CC(C2)C3)NC(=O)[C@H](Cc2cncnc2)NC(=O)[C@H](C)N(C)C(=O)[C@H](Cc2ccccc2)OC(=O)C23CC(CNC(=O)[C@H](Cc4ccccc4)N(C)C1=O)(C2)C3 [compound 272, cyclo(FLac-NMeA-PyrimAla-AlaPent-Phe2F-hL-NMeF-amBCP)] (cyclo([NMeA][Ala(pyrimidin-5-yl)][Ala(1-bicyclo(1.1.1)pentyl)][Phe(2-F)][hLeu][NMeF][X1][PhLac]))",5.53
14,"CCCC[C@@H]1NC(=O)[C@H](Cc2cccnc2)NC(=O)[C@H](C)N(C)C(=O)[C@H](Cc2ccccc2)OC(=O)C23CC(CNC(=O)[C@H](Cc4cccnc4)N(C)C(=O)[C@H](CCCC)NC(=O)[C@H](Cc4ccccc4F)NC1=O)(C2)C3 [compound 244, cyclo(FLac-NMeA-3Pal-Nle-Phe2F-Nle-NMe3Pal-amBCP)] (cyclo([3Pal][Nle][Phe(2-F)][Nle][NMe3Pal][X1][PhLac][NMeA]))",5.14
15,"CCCCC[C@@H]1NC(=O)[C@H](Cc2ccc(OC)cc2)NC(=O)[C@H](CC2CCC2)NC(=O)[C@H](Cc2cncnc2)NC(=O)[C@H](CCCNC)N(C)C(=O)[C@H](Cc2ccccc2)NC(=O)CSC[C@@](C)(C(N)=O)NC(=O)[C@H](Cc2ccc(C)nc2)N(C)C1=O [compound 394, cyclo(F-NMeOmMe-PyrimAla-cBuA-TyrOMe-Ahp-NMe3Pal4Me-aMeCl-ClAc)] ({CH2CO}-F[NMeOrn(Me)][Ala(pyrimidin-5-yl)][Cba]Y(Me)[Ahp(2)][NMe3Pal(6-Me)][αMeC]-NH2; thioether N-8)",< 4.29
16,"CCCC[C@@H]1NC(=O)[C@H](Cc2cccnc2)NC(=O)[C@H](C)N(C)C(=O)[C@H](Cc2cccc(C)c2)NC(=O)C23CC(CNC(=O)[C@H](Cc4cccnc4)N(C)C(=O)[C@H](CCCC)NC(=O)[C@H](Cc4ccccc4F)NC1=O)(C2)C3 [compound 166, cyclo(Phe3Me-NMeA-3Pal-Nle-Phe2F-Nle-NMe3Pal-amBCP)] (cyclo([3Pal][Nle][Phe(2-F)][Nle][NMe3Pal][X1][Phe(3-Me)][NMeA]))",4.49
17,"C[C@H]1C(=O)N[C@@H](Cc2cncnc2)C(=O)N[C@@H](CC2CC2)C(=O)N[C@@H](Cc2ccccc2F)C(=O)NC2CC/C=C\CC[C@@H](C(=O)NCC34CC(C3)(C4)C(=O)O[C@@H](Cc3ccccc3)C(=O)N1C)N(C)C2=O [SEQ ID NO: 182, cyclo(FLac-NMeA-PyrimAla-cPrA-Phe2F-Hag-NMeHag-amBCP)]",4.39
18,"CCCC[C@@H]1NC(=O)[C@H](Cc2cccnc2)NC(=O)[C@H](CC#N)NC(=O)[C@H](Cc2ccccc2)OC(=O)C23CC(CNC(=O)[C@H](Cc4cccnc4)N(C)C(=O)[C@H](CCCC)NC(=O)[C@H](Cc4ccccc4F)NC1=O)(C2)C3 [compound 252, cyclo(FLac-AlaCN-3Pal-Nle-Phe2F-Nle-NMe3Pal-amBCP)] (cyclo([3Pal][Nle][Phe(2-F)][Nle][NMe3Pal][X1][PhLac][Ala(CN)]))",< 4.29
19,"CCCC[C@@H]1NC(=O)[C@H](Cc2cccnc2)NC(=O)[C@H](C)N(C)C(=O)[C@H](Cc2ccc(C)nc2)NC(=O)C23CC(CNC(=O)[C@H](Cc4cccnc4)N(C)C(=O)[C@H](CCCC)NC(=O)[C@H](Cc4ccccc4F)NC1=O)(C2)C3 [compound 164, cyclo(4Me3Pal-NMeA-3Pal-Nle-Phe2F-Nle-NMe3Pal-amBCP)] (cyclo([3Pal][Nle][Phe(2-F)][Nle][NMe3Pal][X1][X27][NMeA]))",< 4.29
20,"CCCC[C@@H]1NC(=O)[C@H](Cc2cncnc2)NC(=O)[C@H](C)N(C)C(=O)[C@H](Cc2ccccc2)OC(=O)C23CC(C2)(C3)[C@H](C)NC(=O)[C@H](Cc2cccnc2)N(C)C(=O)[C@H](CCCC)NC(=O)[C@H](Cc2ccccc2F)NC1=O [compound 121, cyclo(FLac-NMeA-PyrimAla-Nle-Phe2F-Nle-NMe3Pal-SMeamBCP)] (cyclo([NMe3Pal][X7][PhLac][NMeA][Ala(pyrimidin-5-yl)][Nle][Phe(2-F)][Nle]))",4.63
